Measurements: ChEMBL document CHEMBL4392859, “Xylo-C-nucleosides with a pyrrolo[2,1-f][1,2,4]triazin-4-amine heterocyclic base: Synthesis and antiproliferative properties” (Bioorg Med Chem Lett, 2019)

What was measured:
Format in all cases: functional, cell-based
[1] = Antiproliferative activity against human DND41 cells
[2] = tested on: Z-138; experiment: Antiproliferative activity against human Z138 cells
[3] = tested on: HL-60; experiment: Antiproliferative activity against human HL60 cells
[4] = tested on: NCI-H460; experiment: Antiproliferative activity against human NCI-H460 cells
[5] = tested on: HCT-116; experiment: Antiproliferative activity against human HCT116 cells
[6] = tested on: K562; experiment: Antiproliferative activity against human K562 cells
[7] = tested on: CAPAN-1; experiment: Antiproliferative activity against human Capan1 cells
[8] = Antiproliferative activity against human HAP1 cells
[9] = Homo sapiens, DND41, read-out: IC50
[10] = Homo sapiens, Z-138, read-out: IC50
[11] = Homo sapiens, HL-60, read-out: IC50
[12] = Homo sapiens, NCI-H460, read-out: IC50
[13] = Homo sapiens, HCT-116, read-out: IC50
[14] = Homo sapiens, K562, read-out: IC50
[15] = Homo sapiens, CAPAN-1, read-out: IC50
[16] = Homo sapiens, HAP1, read-out: IC50

IC50 [3, 11] | IC50 [4, 12] | IC50 [5, 13] | IC50 [6, 14] | IC50 ([3]; hl-60) | IC50 ([4]; nci-h460) | IC50 ([5]; hct-116) | IC50 ([6]; k562) | SMILES | IC50 [1, 9] | IC50 [2, 10] | IC50 [7, 15] | IC50 [8, 16] | IC50 [1] | IC50 ([2]; z-138) | IC50 ([7]; capan-1) | IC50 [8]
1900 nM | 2000 nM | 8400 nM | 4300 nM |  |  |  |  | Nc1ncnn2c([C@@H]3O[C@H](CO)[C@H](O)[C@H]3O)ccc12 | 2800 nM | 4000 nM | 2700 nM | 9300 nM |  |  |  | 
47 nM | 7 nM | 4 nM | 16 nM |  |  |  |  | CC(=O)O[C@@]12CO[C@@H]1C[C@H](O)[C@@]1(C)C(=O)[C@H](O)C3=C(C)[C@@H](OC(=O)[C@H](O)[C@@H](NC(=O)OC(C)(C)C)c4ccccc4)C[C@@](O)([C@@H](OC(=O)c4ccccc4)[C@H]21)C3(C)C [DOCETAXEL ANHYDROUS] | 14 nM | 9 nM | 19 nM | 18 nM |  |  |  | 
 |  |  |  | Not Active | Not Active | Not Active | Not Active | N#C[C@@]1(c2ccc3c(N)ncnn23)O[C@H](CO)[C@H](O)[C@H]1O |  |  |  |  | Not Active | Not Active | Not Active | Not Active

SMILES | IC50 [3, 11] | IC50 [4, 12] | IC50 [5, 13] | IC50 [6, 14] | IC50 ([3]; hl-60) | IC50 ([4]; nci-h460) | IC50 ([5]; hct-116) | IC50 ([6]; k562) | IC50 [1, 9] | IC50 [2, 10] | IC50 [7, 15] | IC50 [8, 16] | IC50 [1] | IC50 ([2]; z-138) | IC50 ([7]; capan-1) | IC50 [8]
CN[C@@H]1C[C@H]2O[C@@](C)([C@@H]1OC)n1c3ccccc3c3c4c(c5c6ccccc6n2c5c31)C(=O)NC4 [STAUROSPORINE] | 19 nM |  | 37 nM | 83 nM |  |  |  |  | 23 nM | 18 nM | 48 nM |  |  |  |  | 
